Drawing on paper PMC7072979, “Doxorubicin Inhibits Phosphatidylserine Decarboxylase and Modifies Mitochondrial Membrane Composition in HeLa Cells” (International Journal of Molecular Sciences, 2020), this text covers inhibition for one compound.

Molecules are shown by their SMILES.

This assay addresses T1, phosphatidylserine decarboxylase (PSD) (Homo sapiens, UniProt Q9UG56).
T1 construct: gene PISD; native endogenous enzyme in mitochondria isolated from HeLa cells (not purified); proenzyme self-cleaved into alpha and beta subunits
T1 sequence (Q9UG56 53-377): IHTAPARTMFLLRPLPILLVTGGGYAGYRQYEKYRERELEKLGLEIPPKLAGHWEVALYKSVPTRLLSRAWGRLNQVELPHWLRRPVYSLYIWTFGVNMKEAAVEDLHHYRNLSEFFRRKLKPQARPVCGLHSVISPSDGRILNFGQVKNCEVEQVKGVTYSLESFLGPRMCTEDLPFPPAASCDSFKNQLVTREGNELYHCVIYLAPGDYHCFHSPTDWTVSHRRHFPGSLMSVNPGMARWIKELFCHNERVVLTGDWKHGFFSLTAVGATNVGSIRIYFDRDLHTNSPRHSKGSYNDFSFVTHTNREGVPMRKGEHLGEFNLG
T1 sequence (Q9UG56 378-409): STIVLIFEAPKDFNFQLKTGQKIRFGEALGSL
Briefly: PE-NBD formation from PS-NBD, HPTLC fluorescence scan, isolated mitochondria. The assay is classed as biochemical.

In the case of `COc1cccc2c1C(=O)c1c(O)c3c(c(O)c1C2=O)C[C@@](O)(C(=O)CO)C[C@@H]3O[C@H]1C[C@H](N)[C@H](O)[C@H](C)O1` [Doxorubicin], the inhibition at 5 µM came to 48%.

Broadly, the inhibition is the drop in the measured response relative to a control, in per cent.
